Substitutions are numbered along the chain they refer to. “Also recorded” adds a separate entry of the source.
Key:
Human M21 melanoma cells = test: M21 cell proliferation, MTS assay; assay type: cell-based; conditions: for Induction of proliferation of M21 melanoma cells: serum-starved overnight, cultured 48 h, MTS
Experimental: FIG. 8. […] The mutant NRG1 (175-222) suppressed proliferation induced by wt NRG1 (175-222) (dominant-negative effect). Human M21 melanoma cells were serum-starved overnight and cultured 48 h with wt or mutant GST-NRG1 (175-222). Cell proliferation was measured by using MTS assays. Data are shown as means+/−SE (n=3). […] For 3KE+WT, 10 ng/ml wt NRG1 (175-222) and mutant NRG1 (175-222) were added at the indicated concentrations. […] P<0.0001 between wt and 3KE, p=0.0001 between wt and 3KE+wt by 2-way ANOVA. There is no statistical significance between 3KE and 3KE+wt (p=0.58).
(§1) Cell proliferation: cells were starved by culturing DMEM with low-level FCS (e.g., 0.4%) overnight and then treated with the wt or mutant NRG1 (175-222) (up to 100 ng/ml). The cells were harvested in 15 min to 6 h after stimulation and cell lysates analyzed by western blotting with antibodies specific to signaling molecules. Alternatively, cells were cultured for 24-48 h after stimulation for testing proliferation or cell viability by MTS assays. Statistical analysis and calculation of kinetic constants were performed using Prism software (Graphpad).

B-16 F10 Cells = test: B16F10 cell proliferation, MTS assay; assay type: cell-based, mouse; conditions: 24 hours
Experimental: FIG. 10. […] B-16 F10 Cells were starved for 5 days in DMEM+1% FBS medium, and then added 3KE (175-222) and WT (175-222) NRG1 at indicated concentrations for 24 hours by MTS assays. P=0.0354 (between wt and 3KE+wt) and P<0.0001 (between wt and 3KE) by 2-way ANOVA.
as §1

[1] = system: estrogen-dependent and independent breast cancer cell lines; test: Growth of breast cancer cell lines; assay type: cell-based; conditions: several estrogen-dependent and independent lines
CHO cells = test: ERK1/2 activation in CHO cells, Western blotting; assay type: cell-based, Chinese hamster; conditions: serum-starved
Experimental: FIG. 14. […] ErbB4 was stably expressed in CHO cells (designated ErbB4-CHO cells). ErbB4 was detected in a cell lysate of ErbB4-CHO cells by western blotting (top). Serum-starved CHO or ErbB4-CHO cells were stimulated with wt NRG1 (175-222) or the 3KE (175-222) mutant and ERK1/2 activation was measured by Western blotting.
CHO cells express endogenous ErbB2 and ErbB3, but no ErbB4. CHO cells that express ErbB4 were generated by transfecting ErbB4 expression vector (designated ErbB4-CHO). […] It is therefore believed that the direct binding of integrin […] the Ras-MAP kinase pathway in ErbB4-CHO cells.

[2] = target: T1, CHO cells that express human β1 (β1-CHO) (Homo sapiens, UniProt P05556); test: Cell adhesion assay, β1-CHO cells; assay type: cell-based
T1 construct: expressed in transfected cells; host or cells: CHO
T1 sequence (P05556 21-798): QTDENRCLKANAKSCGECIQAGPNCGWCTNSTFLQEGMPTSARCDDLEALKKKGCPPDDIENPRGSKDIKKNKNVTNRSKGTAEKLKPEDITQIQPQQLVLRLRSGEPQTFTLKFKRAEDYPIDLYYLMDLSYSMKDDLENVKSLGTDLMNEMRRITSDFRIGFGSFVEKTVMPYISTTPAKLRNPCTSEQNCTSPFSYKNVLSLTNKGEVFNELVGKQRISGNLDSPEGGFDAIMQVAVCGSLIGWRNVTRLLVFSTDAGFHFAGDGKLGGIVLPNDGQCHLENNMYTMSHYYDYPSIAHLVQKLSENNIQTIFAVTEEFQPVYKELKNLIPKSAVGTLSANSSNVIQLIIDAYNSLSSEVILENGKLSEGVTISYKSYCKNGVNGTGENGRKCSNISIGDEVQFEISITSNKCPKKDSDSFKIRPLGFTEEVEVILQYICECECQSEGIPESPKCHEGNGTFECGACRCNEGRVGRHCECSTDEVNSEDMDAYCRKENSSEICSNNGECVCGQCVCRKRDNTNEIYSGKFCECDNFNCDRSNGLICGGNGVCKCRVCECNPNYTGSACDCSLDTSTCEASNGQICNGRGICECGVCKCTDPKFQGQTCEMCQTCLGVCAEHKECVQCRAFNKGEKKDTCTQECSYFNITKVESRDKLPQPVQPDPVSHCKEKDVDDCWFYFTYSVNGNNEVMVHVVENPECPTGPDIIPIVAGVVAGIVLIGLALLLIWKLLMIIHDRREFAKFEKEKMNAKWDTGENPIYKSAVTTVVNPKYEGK
Experimental: FIG. 3. Adhesion of CHO cells that express human β1 (β1-CHO) or β1-3-1 (β1-3-1-CHO) to wt NRG1 (175-222). The β1-3-1 mutation changes the specificity of β1 integrins to that of β3 integrins. Cell adhesion was performed as described herein. β1-3-1-CHO cells adhered to wt NRG1 (175-222) and this binding was blocked by anti-human β1 antibody AIIB2, but not by purified mouse IgG (mIgG). BSA: BSA as a control was coated instead of NRG1 (175-222).
CHO or K562 cells expressing different recombinant integrins were previously known and available (Zhang et al. 1998; Tarui et al. 2006). Labeling of proteins with FITC or […] was performed according to manufacturers' instructions. Flow cytometry was performed as described above. Also, adhesion assays as described above were used to confirm the findings using flow cytometry.
Cell adhesion and soluble integrin binding assays were performed as described previously (Mori, et al., 2008). NRG1α (175-241) was immobilized to wells of 96-well microtiter plate overnight at 4° C. in 0.1 M carbonate buffer, pH 2 9.4. Remaining protein binding sites were blocked by incubating with 200 μl of 0.1% BSA in PBS for 60 min at room temperature. […] After rinsing the wells with the same buffer, bound integrins were determined by horseradish peroxidase (HRP)-conjugated anti-His tag mouse IgG and substrate 3,3′,5,5′-tetramethylbenzidine of HRP.

[3] = system: mock-transfected K562 cells; test: Cell adhesion assay, mock-transfected K562 cells; assay type: cell-based, human
Experimental: FIG. 5. […] Adhesion assays was performed using αvβ3-K562 (left) or mock transfected cells (right) as described herein. The data is shown as means+/−SEM of triplicate experiments.
Cell adhesion and soluble integrin binding assays were performed as described previously (Mori, et al., 2008). NRG1α (175-241) was immobilized to wells of 96-well microtiter plate overnight at 4° C. in 0.1 M carbonate buffer, pH 2 9.4. Remaining protein binding sites were blocked by incubating with 200 μl of 0.1% BSA in PBS for 60 min at room temperature. Wells were then incubated with soluble integrin αvβ3 in 50 μl in Hepes-Tyrode's buffer supplemented with 1 mM Mn2+ at room temperature for 60 min. After rinsing the wells with the same buffer, bound integrins were determined by horseradish peroxidase (HRP)-conjugated anti-His tag mouse IgG and substrate 3,3′,5,5′-tetramethylbenzidine of HRP.

MCF-7 cells = test: Western blot analysis of NRG1 signaling in MCF-7 cells; assay type: cell-based, human; conditions: 2.5 nM
Experimental: FIG. 22. Effect of the 3KE mutation on NRG1 signaling. The 3KE mutant of NRG1α (175-241) is defective in inducing ErbB3 phosphorylation, AKT activation and ERK1/2 activation. MCF-7 cells were serum-starved overnight and stimulated with 2.5 nM WT and the 3KE mutant of NRG1α (175-241) at indicated time points. Cell lysates were analyzed by western blotting. […] Data are shown with signals at time 0 as 1.
MCF-7 cells grown to confluence were serum-starved in serum-free medium overnight, and then treated with WT or 3KE mutant NRG1α (175-241) (2.5 nM) for 5 min to 6 h at 37° C. Cells were washed with ice-cold PBS once, and lysed with the lysis buffer (20 mM HEPES (pH 7.4), 100 mM NaCl, 10% Glycerol, 1% NP-40, 1 mM MgCl2, 5 mM EDTA, 0.5% Triton X-100, 1 mM phenylmethylsulfonyl fluoride, 20 mM NaF, 1 mM Na3VO4, protease inhibitor cocktail (Sigma-Aldrich)). Protein concentrations in the cell lysates were determined using BCA protein assay (Pierce). Equal amounts of cell proteins were analyzed by SDS-PAGE and transferred onto 0.45 μm pore-size polyvinylidene fluoride membrane (Milipore, Birellica, Mass.). The membrane was incubated with primary antibodies, then HRP-conjugated secondary antibody and enhanced chemiluminescence detection reagents (Pierce).

3KE (175-222): NRG1 (175-222) with Lys181/Lys185/Lys187 mutated to Glu; GTSHLVECAEEEETFCVNGGECFMVKDLSNPSRYLCKCQPGFTGARCT (SEQ ID NO:11) (integrin-binding site within human neuregulin, 3KE mutant, short version)
Suppression of proliferation induced by wt NRG1 (175-222) in M21 cells (Human M21 melanoma cells; added together with 10 ng/ml wt NRG1 (175-222)): suppressed the proliferation induced by wt NRG1 (175-222) | Induction of proliferation of M21 melanoma cells (Human M21 melanoma cells): did not induce proliferation | Induction of cell proliferation in B16F10 cells (B-16 F10 Cells): did not induce them | Suppression of cell proliferation in B16F10 cells (B-16 F10 Cells; P=0.0354 between wt and 3KE+wt): Suppression of cell proliferation | Growth of breast cancer cells [1]: did not | ERK1/2 activation in (mock-transfected) CHO cells (CHO cells): suppressed | ERK1/2 activation in (mock-transfected) CHO cells (CHO cells; listed as 3KE (175-222)): suppressed ERK1/2 activation

wt NRG1 (175-222): wild type human neuregulin 1 fragment, EGF-like domain, residues 175-222 of SEQ ID NO:4 (SEQ ID NO:3) (GTSHLVKCAEKEKTFCVNGGECFMVKDLSNPSRYLCKCQPGFTGARCT; integrin-binding site within human neuregulin 1 EGF-like region and portion of alpha domain, residues 175-222 of human neuregulin 1 alpha) [reference compound]
Adhesion of β1-CHO cells to the immobilized protein [2]: did not | Adhesion of mock-transfected K562 cells to the immobilized protein [3]: did not | Induction of proliferation of M21 melanoma cells (Human M21 melanoma cells): did | Induction of cell proliferation in B16F10 cells (B-16 F10 Cells): induced cell proliferation | Growth of breast cancer cells [1]: enhanced the growth of breast cancer cells | ERK1/2 activation in (mock-transfected) CHO cells (CHO cells): enhanced ERK1/2 activation

B1: WT NRG1α (175-241): wild type human neuregulin 1 fragment, residues 175-241 of SEQ ID NO:4 (SEQ ID NO:5), entire EGF-like motif and α domain (protein)
chain: GTSHLVKCAEKEKTFCVNGGECFMVKDLSNPSRYLCKCQPGFTGARCTENVPMKVQNQEKAEELYQK
modifications: integrin-binding site within human neuregulin, residues 175-241of human neuregulin 1alpha, long version
Adhesion of β1-CHO cells to the immobilized protein [2]: did not | Adhesion of mock-transfected K562 cells to the immobilized protein [3]: did not | AKT activation (phosphorylation) in MCF-7 cells (MCF-7 cells): markedly induced phosphorylation | ERK1/2 activation (phosphorylation) in MCF-7 cells (MCF-7 cells): markedly induced phosphorylation | ErbB3 phosphorylation in MCF-7 cells (MCF-7 cells): markedly induced phosphorylation

B2: 3KE (175-241): NRG1α (175-241) with Lys181/Lys185/Lys187 mutated to Glu, SEQ ID NO:6 (3KE, long version) (protein)
chain: B1 chain with K7E, K11E, K13E
modifications: integrin-binding site within human neuregulin, residues 175-241of human neuregulin 1alpha, long version, 3KE mutant
AKT activation (phosphorylation) in MCF-7 cells (MCF-7 cells): little or no AKT activation | ERK1/2 activation (phosphorylation) in MCF-7 cells (MCF-7 cells): much lower levels than WT NRG1α (175-241); also recorded: only weakly induced phosphorylation | ErbB3 phosphorylation in MCF-7 cells (MCF-7 cells): much lower levels than WT NRG1α (175-241); also recorded: only weakly induced phosphorylation

From US20110212108A1, “NEUREGULIN/ERBB SIGNALING AND INTEGRIN” (THE REGENTS OF THE UNIVERSITY OF CALIFORNIA, priority 2008, published 2011)
